Test results from patent publication US9399028B2, “Treatment of drug resistant cancer” (ROCKEFELLER UNIVERSITY (THE), priority 2012, dated 2016).
Counter-ions that a name gives are not always drawn.

Key:
[1] = tested on: extracellular ApoE protein; assay: ApoE ELISA of conditioned media; type: cell-based, human; conditions: MeWo cells, 1 μM, 72 hours
Experimental: Extracellular ApoE levels in serum-free conditioned media from melanoma cells treated with DMSO, GW3965, or T0901317 (1 μM each) were quantified using the ApoE ELISA kit (Innovative Research) at 72 hours following treatment.

[2] = tested on: human breast, pancreatic, renal, lung cancer and uveal melanoma cell lines; assay: Trans-well matrigel invasion assay, other cancer types; type: cell-based
Experimental: The ability of cancer cells to invade through matrigel in vitro was tested by using a trans-well matrigel invasion chamber system (354480, BD Biosciences). Various cancer cell lines were serum-starved overnight in media containing 0.2% FBS. The following day, invasion chambers were pre-equilibrated prior to the assay by adding 0.5 mL of starvation media to the top and bottom wells. Meanwhile, cancer cells were trypsinized and viable cells were counted using the trypan blue dead cell exclusion dye. Cancer cells were then resuspended at a concentration of 1×10^5 cells/1 mL starvation media, and 0.5 mL of cell suspension, containing 5×10^4 cells, was seeded into each trans-well. […] The basal side of each insert was imaged using an inverted fluorescence microscope (Zeiss Axiovert 40 CFL) at 5× magnification, and the number of DAPI-positive cells was quantified using ImageJ.
The cells were serum starved for 16 hours in 0.2% FBS media in the presence of DMSO or GW3965. […] Meanwhile, cancer cells were trypsinized and viable cells were counted using trypan blue. […] The basal side of each insert was imaged using an inverted fluorescence microscope (Zeiss Axiovert 40 CFL) at 5× magnification, and the number of DAPI-positive cells was quantified using ImageJ.

Row | Compound | levels of secreted ApoE protein [1] | tumor cell invasion in renal, pancreatic and lung cancer cells ([2]; RCC, PANC1, H460 cells, 1 μM for 72 hours) | tumor cell invasion across breast, renal cell and pancreatic cancer ([2]; recombinant ApoE3 100 μg/mL)
1 | O=C(O)Cc1cccc(OCCCN(Cc2cccc(C(F)(F)F)c2Cl)CC(c2ccccc2)c2ccccc2)c1 [GW3965 2, 3-[3-[N-(2-Chloro-3-trifluoromethylbenzyl)-(2,2-diphenylethyl)amino]propyloxy]phenylacetic acid hydrochloride] | elevated levels | inhibition | –
2 | O=S(=O)(c1ccccc1)N(CC(F)(F)F)c1ccc(C(O)(C(F)(F)F)C(F)(F)F)cc1 [T0901317 1] | elevated levels | – | –
3 | recombinant human ApoE3: recombinant human ApoE3 (4696, BioVision) | – | – | inhibited
